# Measured values published in patent US6287840A (Axys Pharmaceuticals, Inc., priority 1999, dated 2001).
# Legend:
# calpain = assay: Inhibition (inactivation) of calpain, Suc-Leu-Tyr-AMC; type: biochemical; details: values marked * (or %), pH 7.5, 5 mM CaCl2, 25° C.
# Method: The inhibitors were tested against calpain at 1 or 2% as for the other enzymes. The reaction conditions were 50 mM Tris, pH 7.5, 5 mM CaCl2, 2.5 mM DTT, assayed at 25° C. The substrate was 100 μM Suc-Leu-Tyr-AMC.
# cruzain, from T. cruzi = cruzain, from T. cruzi (Trypanosoma cruzi, UniProt P25779); assay: Inhibition of cruzain, as for cathepsin L; type: biochemical; details: for k/KI (kirr/KI): values without asterisk
# cruzain, from T. cruzi, sequence (P25779 123-337 limits assumed): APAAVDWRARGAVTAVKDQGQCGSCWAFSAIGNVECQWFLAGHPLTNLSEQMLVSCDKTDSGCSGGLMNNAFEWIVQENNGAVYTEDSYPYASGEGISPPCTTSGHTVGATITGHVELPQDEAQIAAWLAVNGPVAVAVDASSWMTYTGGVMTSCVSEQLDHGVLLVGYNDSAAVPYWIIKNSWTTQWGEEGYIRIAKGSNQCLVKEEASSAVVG
# Method: (§1) Stock solutions of the various inhibitors (10 mM) were made in DMF; dilutions were made in the same solvent. Cathepsin L from rat liver, (see Mason et al., Biochem. J. 226:233-241 (1985)) was approximately 1 nM in the assay. The assay buffer contained 50 mM phosphate at pH 6:2, 2.5 mM dithiothreitol (DTT), and 2.5 mM ethylenediaminetetraacetic acid (EDTA). The substrate for cathepsin L was 5 μM Z-Phe-Arg-AMC (carbobenzyloxyphenylalanylarginylaminomethylcoumarin). The assays were initiated at 25° C. by addition of enzyme to 2 mL of assay buffer containing the substrate and the various inhibitors (30-0.001 μM). The increase in fluorescence at 460 nm with excitation at 380 nm was followed with time. Inactivation of cathepsin L was indicated by a downward curve in the increase in fluorescence with time. In the absence of inhibitors, the enzymatic production of free AMC was linear throughout the time course of inactivation examined. Data points were collected over at least 3 half-times of inactivation. The inhibition progress curves were analyzed using non-linear curve fitting software to compute the kobs values. Approximate second-order inactivation constants (kobs /[I]) were calculated for all compounds. For selected inhibitors, plots of 1/[I] vs. 1/kobs yielded the true constants kirr, KI, and kirr/KI and were corrected for the presence of substrate by dividing KI (app.) by (1+[S]/Km).
# Inhibition of cruzain, from T. cruzi, (see Eakin et at., J. Biol. Chem. 268(9): 6115-6118 (1993)) proceeded exactly as for cathepsin L, outlined above, using an enzyme concentration of 1 nM.
# [1] = target: T1, Cathepsin L from rat liver (Rattus norvegicus, UniProt P07154); assay: Inhibition of cathepsin L, Z-Phe-Arg-AMC fluorescence progress curves; type: biochemical; details: for k/KI (kirr/KI): values without asterisk
# T1 construct: Cathepsin L from rat liver; from tissue; host or cells: rat liver
# T1 sequence (P07154 114-288 limits assumed): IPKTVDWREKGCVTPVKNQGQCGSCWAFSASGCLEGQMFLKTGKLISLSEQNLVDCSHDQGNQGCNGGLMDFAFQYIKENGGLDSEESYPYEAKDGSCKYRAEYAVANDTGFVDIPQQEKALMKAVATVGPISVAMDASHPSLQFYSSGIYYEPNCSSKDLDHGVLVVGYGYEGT
# T1 sequence (P07154 291-334 limits assumed): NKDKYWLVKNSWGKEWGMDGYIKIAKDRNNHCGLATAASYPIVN
# Method: as §1
# [2] = test system: Leishmania donovani amastigote infected mouse peritoneal macrophages; assay: In vitro antiprotozoal activity, Leishmania donovani; type: cell-based; details: Leishmania donovani, Peritoneal macrophage, read-out: percentage inhibition, L. donovani
# Method: (§2) In this table, the in vitro antiprotozoal activities of the indicated compounds were measured as percentage inhibition of Leishmania donovani amastigote infecteda mouse peritoneal macrophages, Trypanosoma cruzi amastigote infected macrophages, and Trypanosoma brucei extracellular bloodstream forms.
# [3] = test system: Trypanosoma brucei extracellular bloodstream forms; assay: In vitro antiprotozoal activity, Trypanosoma brucei; type: cell-based; details: Trypanosoma brucei, read-out: percentage inhibition, T. brucei
# Method: as §2
# [4] = test system: Trypanosoma cruzi amastigote infected macrophages; assay: In vitro antiprotozoal activity, Trypanosoma cruzi; type: cell-based; details: Trypanosoma cruzi, Macrophage, read-out: percentage inhibition, T. cruzi
# Method: as §2
# [5] = target: T2, Cathepsin B from human placenta (Homo sapiens, UniProt P07858); assay: Inhibition of cathepsin B, Z-Arg-Arg-AMC fluorescence progress curves; type: biochemical; details: for k/KI (kirr/KI): values without asterisk
# T2 construct: Cathepsin B from human placenta, obtained from Sigma; purchased Sigma; host or cells: human placenta (tissue)
# Method: Stock solutions of the various inhibitors (10 mM) were made in DMF; dilutions were made in the same solvent. Cathepsin B from human placenta, obtained from Sigma, was approximately 10 nM in the assay. The assay buffer contained 50 mM phosphate at pH 6.2, 2.5 mM dithiothreitol (DTT), and 2.5 mM ethylenediaminetetraacetic acid (EDTA). The substrate for cathepsin B was 50 μM Z-Arg-Arg-AMC (carbobenzyloxyarginylarginylaminomethylcoumarin). The assays were initiated at 25° C. by addition of enzyme to 2 mL of assay buffer containing the substrate and the various inhibitors (30-0.001 (μM). The increase in fluorescence at 460 nm with excitation at 380 nm was followed with time, and the assay was linear throughout the range observed. Inactivation of cathepsin B was indicated by a downward curve in the increase in fluorescence with time. In the absence of inhibitors, the enzymatic production of free AMC was linear throughout the time course of inactivation examined. Data points were collected over at least 3 half-times of inactivation, and in duplicate. The inhibition progress curves were analyzed using non-linear curve fitting software to compute the kobs values. Approximate second-order inactivation constants (kobs /[I]) were calculated for all compounds. For selected inhibitors, plots of 1/[I] vs. 1/kobs yielded the true constants kirr, KI, and kirr /KI, and were corrected for the presence of substrate by dividing KI (app.) by {1+[S]/Km }.
# Cloned cathepsin S = target: T3, Cloned cathepsin S (Homo sapiens, UniProt P25774); assay: Inhibition of cathepsin S, Z-Val-Val-Arg-AMC fluorescence progress curves; type: biochemical; details: for k/KI (kirr/KI): values without asterisk
# T3 construct: made in house
# T3 sequence (P25774 115-331): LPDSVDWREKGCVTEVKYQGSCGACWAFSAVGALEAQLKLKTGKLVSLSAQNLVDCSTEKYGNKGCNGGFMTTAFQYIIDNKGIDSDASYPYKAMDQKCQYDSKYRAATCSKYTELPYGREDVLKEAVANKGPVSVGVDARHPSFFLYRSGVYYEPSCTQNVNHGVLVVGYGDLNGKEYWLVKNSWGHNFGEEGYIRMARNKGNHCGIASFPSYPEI
# Method: Stock solutions of the various inhibitors (10 mM) were made in DMF; dilutions were made in the same solvent. Cloned cathepsin S, (see Bromme et al., J. Biol. Chem. 268(&): 4832-4838 (1993)) was less than 1 nM in the assay. The assay buffer contained 100 mM phosphate at pH 6.5, 0.01% Triton, 2.5 mM dithiothreitol (DTT), and 2.5 mM ethylenediaminetetraacetic acid (EDTA). The substrate for cathepsin S was 10 μM Z-Val-Val-Arg-AMC (carbobenzyloxyvalinylvalinylarginylaminomethylcoumarin). The assays were initiated at 25° C. by addition of enzyme to 2 mL of assay buffer containing the substrate and the various inhibitors (30-0.001 μM). The increase in fluorescence at 460 nm with excitation at 380 nm was followed with time. Inactivation of cathepsin S was indicated by a downward curve in the increase in fluorescence with time. In the absence of inhibitors, the enzymatic production of free AMC was linear throughout the time course of inactivation examined. Data points were collected over at least 3 half-times of inactivation. The inhibition progress curves were analyzed using non-linear curve fitting software to compute the kobs values. Approximate second-order inactivation constants (kobs /[I]) were calculated for all compounds. For selected inhibitors, plots of 1/[I] vs. 1/kobs yielded the true constants kirr, KI, and kirr /KI, and were corrected for the presence of substrate by dividing KI (app.) by {1+[S]/Km}.
# [6] = values marked *, 25° C., pH 6.2, read-out: kobs /[I]* (approximate second-order inactivation constant)
# [7] = values marked *, 25° C., pH 6.2
# [8] = values marked *, 25° C., pH 6.5
compound,measurement,setting,value
"CC(=O)N[C@@H](CC(C)C)C(=O)N[C@@H](CC(C)C)C(=O)N[C@H](/C=C/S(=O)(=O)c1ccccc1)CCS(C)(=O)=O [Ac-Leu-Leu-Met(O2)VSPh, (S)-(E)-3-(acetylleucylleucyl)amino-5-methylsulfonyl-1-phenylsulfonyl-1-pentene]",kobs /[I]*,calpain,"8,400 M^-1 sec^-1"
same,k/KI (kirr/KI),"cruzain, from T. cruzi","104,000 M^-1 sec^-1"
same,k/KI (kirr/KI),"[1]; 25° C., pH 6.2","1,500,000 M^-1 sec^-1"
"C[C@H](NC(=O)OC(C)(C)C)C(=O)N[C@H](/C=C/S(C)(=O)=O)Cc1ccccc1 [Boc-Ala-PheVSMe, (S)-(E)-3-(tert-2butoxycarbonylalanyl)amino-1-methylsulfonyl-4-phenyl-1-butene]",kobs /[I]*,calpain,60 M⁻¹ s⁻¹
"Cl.NCC(=O)N[C@H](/C=C/S(=O)(=O)c1ccccc1)Cc1ccccc1 [HCl.Gly-Phe-VSPh, (S)-(E)-3-glycylamino-4-phenyl-1-phenylsulfonyl-1-butene hydrochloride]",kobs /[I]*,calpain,< 50 M⁻¹ s⁻¹
same,inhibition at 10 µM,[2]; 10 uM,0%
same,inhibition at 30 µM,[2]; 30 uM,0%
same,inhibition at 90 µM,[2]; 90 uM,4.02%
same,inhibition at 3 µM,[3]; 3 uM,0%
same,inhibition at 10 µM,[3]; 10 uM,0%
same,inhibition at 30 µM,[3]; 30 uM,0%
same,inhibition at 90 µM,[3]; 90 uM,0%
same,inhibition at 3 µM,[4]; 3 uM,0%
same,inhibition at 10 µM,[4]; 10 uM,0%
same,inhibition at 30 µM,[4]; 30 uM,0.1%
same,inhibition at 90 µM,[4]; 90 uM,0%
"COC(=O)CCC(=O)N[C@@H](Cc1ccccc1)C(=O)N[C@H](/C=C/S(=O)(=O)c1ccccc1)CCc1ccccc1 [MeOSuc-Phe-HphVSPh, (S)-(E)-3-(carbomethoxypropionylphenylalanyl)amino-5-phenyl-1-phenylsulfonyl-1-pentene]",kinact/KI,[5]; [6],870 M⁻¹ s⁻¹
same,kinact/KI,"cruzain, from T. cruzi; pH 6.2, values marked *, read-out: kobs /[I]* (approximate second-order inactivation constant)",34000 M⁻¹ s⁻¹
same,kinact/KI,"Cloned cathepsin S; values marked *, 25° C., pH 6.5, read-out: kobs /[I]* (approximate second-order inactivation constant)",740000 M⁻¹ s⁻¹
same,kinact/KI,[1]; [6],47000 M⁻¹ s⁻¹
"O=C(N[C@H](/C=C/S(=O)(=O)c1ccc2ccccc2c1)CCc1ccccc1)C(Cc1ccc2ccccc2c1)NC(=O)N1CCOCC1 (stereo partly drawn) [Mu-Np-HphVSNp, (S)-(E)-3-(4-morpholinecarbonyl-2-naphthylalanyl)amino-1-(2-napthylsulfonyl)-5-phenyl-1-pentene]",kobs /[I]* (approximate second-order inactivation constant),[5]; [7],"184,000 M^-1 sec^-1"
same,Ki,"cruzain, from T. cruzi",25 nM
same,kirr,"cruzain, from T. cruzi",0.044 s⁻¹
same,k/KI (kirr/KI),"cruzain, from T. cruzi","1,770,000 M^-1 sec^-1"
same,kirr,Cloned cathepsin S,0.10 s⁻¹
same,Ki,Cloned cathepsin S; corrected for substrate,1.8 nM
same,k/KI (kirr/KI),"Cloned cathepsin S; 25° C., pH 6.5","56,000,000 M^-1 sec^-1"
same,kirr,[1],0.14 s⁻¹
same,Ki,[1]; corrected for substrate,18 nM
same,k/KI (kirr/KI),"[1]; 25° C., pH 6.2","9,200,000 M^-1 sec^-1"
"O=C(N[C@H](/C=C/S(=O)(=O)c1ccc2ccccc2c1)CCc1ccccc1)[C@H](Cc1ccccc1)NC(=O)N1CCOCC1 [Mu-Phe-HphVSNp, (S)-(E)-3-(4-morpholinecarbonylphenylalanyl)amino-1-(2-napthylsulfonyl)-5-phenyl-1-pentene]",kirr,[5],0.087 s⁻¹
same,Ki,[5]; corrected for substrate,1400 nM
same,k/KI (kirr/KI),"[5]; 25° C., pH 6.2","63,700 M^-1 sec^-1"
same,Ki,"cruzain, from T. cruzi",110 nM
same,kirr,"cruzain, from T. cruzi",0.08 s⁻¹
same,k/KI (kirr/KI),"cruzain, from T. cruzi","740,000 M^-1 sec^-1"
same,kobs /[I]* (approximate second-order inactivation constant),Cloned cathepsin S; [8],"> 5,400,000 M^-1 sec^-1"
"CSCC[C@@H](/C=C/S(=O)(=O)c1ccccc1)NC(=O)[C@H](Cc1ccccc1)NC(=O)N1CCOCC1 [Mu-Phe-MetVSPh, (S)-(E)-3-(4-morpholinecarbonylphenylalanyl)amino-1-phenylsulfonyl-6-thia-1-heptene]",k/KI (kirr/KI),"[5]; 25° C., pH 6.2","7,000 M^-1 sec^-1"
same,k/KI (kirr/KI),"cruzain, from T. cruzi","111,000 M^-1 sec^-1"
same,k/KI (kirr/KI),"Cloned cathepsin S; 25° C., pH 6.5","4,000,000 M^-1 sec^-1"
same,k/KI (kirr/KI),"[1]; 25° C., pH 6.2","250,000 M^-1 sec^-1"
"CCCC[C@@H](/C=C/S(=O)(=O)c1ccccc1)NC(=O)[C@H](Cc1ccccc1)NC(=O)N1CCOCC1 [Mu-Phe-NleVSPh, (S)-(E)-3-(4-morpholinecarbonylphenylalanyl)amino-1-phenylsulfonyl-1-heptene]",k/KI (kirr/KI),"[5]; 25° C., pH 6.2","7,600 M^-1 sec^-1"
same,k/KI (kirr/KI),"cruzain, from T. cruzi","77,000 M^-1 sec^-1"
same,kobs /[I]* (approximate second-order inactivation constant),Cloned cathepsin S; [8],"2,300,000 M^-1 sec^-1"
same,k/KI (kirr/KI),"[1]; 25° C., pH 6.2","188,000 M^-1 sec^-1"
"Cl.N[C@H](/C=C/S(=O)(=O)c1ccccc1)Cc1ccccc1 [Phe-VSPh, (S)-(E)-3-amino-4-phenyl-1-phenylsulfonyl-1-butene hydrochloride]",kobs /[I]*,calpain,< 50 M⁻¹ s⁻¹
(S)-(E)-3-(4-morpholinecarbonylleucylleucyl)amino-4-(4-hydroxyphenyl)-1-phenylsulfonyl-1-butene [Mu-Leu-Leu-TyrVSPh],kobs /[I]*,calpain,"10,800 M^-1 sec^-1"
same,kobs /[I]*,calpain; listed as Mu-Leu-Leu-Tyr-VSPh,"7,600 M^-1 sec^-1"
same,kobs /[I]* (approximate second-order inactivation constant),Cloned cathepsin S; [8],"25,100 M^-1 sec^-1"
(S)-(E)-3-(4-morpholinecarbonylphenylalanyl)amino-5-methylsulfonyl-1-phenylsulfonyl-1-pentene [Mu-Phe-Met(O2)VSPh],kobs /[I]* (approximate second-order inactivation constant),[5]; [7],"1,600 M^-1 sec^-1"
same,k/KI (kirr/KI),"cruzain, from T. cruzi","160,000 M^-1 sec^-1"
same,k/KI (kirr/KI),"Cloned cathepsin S; 25° C., pH 6.5","2,800,000 M^-1 sec^-1"
same,k/KI (kirr/KI),"[1]; 25° C., pH 6.2","250,000 M^-1 sec^-1"
(S)-(E)-3-(4-morpholinecarbonylvalyl)amino-4-phenyl-1-phenylsulfonyl-1-butene [Mu-Val-PheVSPh],kobs /[I]*,calpain,110 M⁻¹ s⁻¹
